Measured values reported in ChEMBL document CHEMBL4706545, “Antiproliferative effect of mitochondria-targeting allobetulin 1,2,3-triazolium salt derivatives and their mechanism of inducing apoptosis of cancer cells” (Eur J Med Chem, 2020).
One block for each compound: values may come before it. The source made the active and inactive calls. No cut-off for these calls is given here.

Key:
ECa-109 cell line [1] = test: Induction of apoptosis in human ECa-109 cells at 1 to 4 uM incubated for 48 hrs by AO/PI staining based fluorescence microscopic analysis; assay type: functional, cell-based; conditions: dose 1-4 µM
ECa-109 cell line [2] = test: Induction of ROS-mediated apoptosis in human ECa-109 cells assessed as early apoptotic cells at 1 uM incubated for 48 hrs by annexin V-PE and 7-AAD staining based flow cytometry analysis (reference value: 2.70 %); assay type: functional
ECa-109 cell line [3] = test: Induction of apoptosis in human ECa-109 cells assessed as viable cells at 1 uM incubated for 48 hrs by annexin-V-FITC and PI staining based fluorescence microscopic analysis (reference value: 95.8 %); assay type: functional; conditions: read-out: Activity
ECa-109 cell line [4] = test: Induction of apoptosis in human ECa-109 cells assessed as late apoptotic cells incubated for 48 hrs by annexin-V-FITC and PI staining based fluorescence microscopic analysis; assay type: functional, cell-based; conditions: dose 1-4 µM
ECa-109 cell line [5] = test: Induction of cell cycle arrest in human ECa-109 cells assessed as accumulation in S phase at 4 uM incubated for 48 hrs by PI staining based flow cytometry analysis (reference value: 39.33 %); assay type: functional
ECa-109 cell line [6] = test: Induction of apoptosis in human ECa-109 cells assessed as viable cells at 2 uM incubated for 48 hrs by annexin-V-FITC and PI staining based fluorescence microscopic analysis (reference value: 95.8 %); assay type: functional; conditions: read-out: Activity
ECa-109 cell line [7] = test: Induction of cell cycle arrest in human ECa-109 cells assessed as accumulation in S phase at 1 uM incubated for 48 hrs by PI staining based flow cytometry analysis (reference value: 39.33 %); assay type: functional
ECa-109 cell line [8] = test: Induction of cell cycle arrest in human ECa-109 cells assessed as accumulation in G0/G1 phase at 1 uM incubated for 48 hrs by PI staining based flow cytometry analysis (reference value: 52.28 %); assay type: functional
ECa-109 cell line [9] = test: Induction of cell cycle arrest in human ECa-109 cells assessed as accumulation in G2/M phase at 2 uM incubated for 48 hrs by PI staining based flow cytometry analysis (reference value: 8.39 %); assay type: functional
ECa-109 cell line [10] = test: Induction of apoptosis in human ECa-109 cells assessed as early apoptotic cells at 4 uM incubated for 48 hrs by annexin-V-FITC and PI staining based fluorescence microscopic analysis (reference value: 0.971 %); assay type: functional
ECa-109 cell line [11] = test: Induction of cell cycle arrest in human ECa-109 cells assessed as accumulation in G0/G1 phase at 4 uM incubated for 48 hrs by PI staining based flow cytometry analysis (reference value: 52.28 %); assay type: functional
ECa-109 cell line [12] = test: Induction of cell cycle arrest in human ECa-109 cells assessed as accumulation in G0/G1 phase at 2 uM incubated for 48 hrs by PI staining based flow cytometry analysis (reference value: 52.28 %); assay type: functional
ECa-109 cell line [13] = test: Induction of apoptosis in human ECa-109 cells assessed as concentrated chromatin at 1 to 4 uM incubated for 48 hrs by Hoechst staining based fluorescence microscopic analysis; assay type: functional, cell-based; conditions: dose 1-4 µM
ECa-109 cell line [14] = test: Induction of ROS-mediated apoptosis in human ECa-109 cells assessed as viable cells at 1 uM incubated for 48 hrs in presence of NAC by annexin V-PE and 7-AAD staining based flow cytometry analysis (reference value: 94 %); assay type: functional; conditions: read-out: Activity
ECa-109 cell line [15] = test: Induction of apoptosis in human ECa-109 cells assessed as viable cells at 4 uM incubated for 48 hrs by annexin-V-FITC and PI staining based fluorescence microscopic analysis (reference value: 95.8 %); assay type: functional; conditions: read-out: Activity
ECa-109 cell line [16] = test: Induction of apoptosis in human ECa-109 cells assessed as necrotic cells at 4 uM incubated for 48 hrs by annexin-V-FITC and PI staining based fluorescence microscopic analysis (reference value: 1.19 %); assay type: functional
SGC-7901 [17] = test: Induction of ROS-mediated apoptosis in human SGC-7901 cells assessed as viable cells at 2 uM incubated for 48 hrs by annexin V-PE and 7-AAD staining based flow cytometry analysis (reference value: 93.6 %); assay type: functional; conditions: read-out: Activity
SGC-7901 [18] = test: Induction of apoptosis in human SGC-7901 cells assessed as decrease in caspase-9 incubated for 48 hrs by Western blot analysis; assay type: functional, cell-based; conditions: dose 1-4 µM
SGC-7901 [19] = test: Induction of cell cycle arrest in human SGC-7901 cells assessed as accumulation in S phase at 2 uM incubated for 48 hrs by PI staining based flow cytometry analysis (reference value: 31.13 %); assay type: functional
SGC-7901 [20] = test: Induction of apoptosis in human SGC-7901 cells assessed as downregulation of Bcl-xl incubated for 48 hrs by Western blot analysis; assay type: functional, cell-based; conditions: dose 1-4 µM
SGC-7901 [21] = test: Induction of mitochondrial membrane potential disruption in human SGC-7901 cells incubated for 48 hrs by JC-1 dye based flow cytometry analysis; conditions: Mitochondria, dose 1-4 µM
SGC-7901 [22] = test: Induction of ROS-mediated apoptosis in human SGC-7901 cells assessed as early apoptotic cells at 2 uM incubated for 48 hrs by annexin V-PE and 7-AAD staining based flow cytometry analysis (reference value: 1.89 %); assay type: functional
SGC-7901 [23] = test: Induction of apoptosis in human SGC-7901 cells assessed as viable cells at 1 uM incubated for 48 hrs by annexin-V-FITC and PI staining based fluorescence microscopic analysis (reference value: 93.8 %); assay type: functional; conditions: read-out: Activity
SGC-7901 [24] = test: Induction of ROS-mediated apoptosis in human SGC-7901 cells assessed as late apoptotic cells at 1 uM incubated for 48 hrs by annexin V-PE and 7-AAD staining based flow cytometry analysis (reference value: 3.82 %); assay type: functional
SGC-7901 [25] = test: Induction of apoptosis in human SGC-7901 cells assessed as decrease in caspase-3 incubated for 48 hrs by Western blot analysis; assay type: functional, cell-based; conditions: dose 1-4 µM
SGC-7901 [26] = test: Induction of cell cycle arrest in human SGC-7901 cells assessed as accumulation in S phase at 4 uM incubated for 48 hrs by PI staining based flow cytometry analysis (reference value: 31.13 %); assay type: functional

SMILES: COc1ccccc1Cn1n[n+](C)c2c1C(C)(C)[C@@H]1CC[C@]3(C)[C@H](CC[C@@H]4[C@H]5[C@H]6OC[C@@]5(CCC6(C)C)CC[C@]43C)[C@@]1(C)C2.[I-]
- Activity (ECa-109 cell line [1]): Active
- Activity (ECa-109 cell line [2]): 11.6%
- viability at 1 µM (ECa-109 cell line [3]): 69.1%
- Activity (ECa-109 cell line [4]): Dose-dependent effect
- Activity (ECa-109 cell line [5]): 43.8%
- viability at 2 µM (ECa-109 cell line [6]): 55.1%
- Activity (ECa-109 cell line [7]): 35.03%
- Activity (ECa-109 cell line [8]): 54.16%
- Activity (ECa-109 cell line [9]): 16.84%
- Activity (ECa-109 cell line [10]): 2.92%
- Activity (ECa-109 cell line [11]): 33.47%
- Activity (ECa-109 cell line [12]): 42.96%
- Activity (ECa-109 cell line [13]): Active
- viability at 1 µM (ECa-109 cell line [14]): 76.2%
- viability at 4 µM (ECa-109 cell line [15]): 1.26%
- Activity (ECa-109 cell line [16]): 3.58%

- Activity (SGC-7901 [21]): Dose-dependent effect
SMILES: C[n+]1nn(Cc2c(F)cccc2Cl)c2c1C[C@]1(C)[C@H]3CC[C@@H]4[C@H]5[C@H]6OC[C@@]5(CCC6(C)C)CC[C@@]4(C)[C@]3(C)CC[C@H]1C2(C)C.[I-]
- viability at 2 µM (SGC-7901 [17]): 60.2%
- Activity (SGC-7901 [18]): Dose-dependent effect
- Activity (SGC-7901 [19]): 15.76%
- Activity (SGC-7901 [20]): Dose-dependent effect
- Activity (SGC-7901 [22]): 26.5%
- viability at 1 µM (SGC-7901 [23]): 83%
- Activity (SGC-7901 [24]): 4.97%
- Activity (SGC-7901 [25]): Dose-dependent effect
- Activity (SGC-7901 [26]): 22.27%
